The results in this text go back to patent US9828396B2, “Alkyne compounds for treatment of complement mediated disorders” (Achillion Pharmaceuticals, Inc., priority 2014, dated 2017).

This test addresses Human factor D (Homo sapiens (Human), UniProt P00746). Description: Human Factor D Assay. It is filed as biochemical. Particulars: Human factor D 80 nM, substrate Z-L-Lys-SBzl, assay of Example 12. How it is done:
Example 12. Human Factor D Assay
Human factor D (purified from human serum, Complement Technology, Inc.) at 80 nM final concentration is incubated with test compound at various concentrations for 5 minutes at room temperature in 50 mM Tris, 1M NaCl, pH 7.5. A synthetic substrate Z-L-Lys-SBzl and DTNB (Ellman's reagent) are added to final concentrations of 100 μM each. The increase in color is recorded at OD405 nm in a microplate in kinetic mode over 30 minutes with 30 second time points in a spectrofluorimeter. IC50 values are calculated by non-linear regression from the percentage of inhibition of complement factor D activity as a function of test compound concentration.

Where only a bound is given, the exact number is not on record here.

Chain of Human factor D (P00746 26-253): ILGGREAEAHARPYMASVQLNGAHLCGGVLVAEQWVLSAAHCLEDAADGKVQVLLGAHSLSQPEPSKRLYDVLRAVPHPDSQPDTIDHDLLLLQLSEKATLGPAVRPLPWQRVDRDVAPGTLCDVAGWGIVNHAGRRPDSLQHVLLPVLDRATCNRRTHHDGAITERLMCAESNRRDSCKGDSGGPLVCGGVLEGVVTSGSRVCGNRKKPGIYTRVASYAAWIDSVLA

The compound `CC(=O)c1cn(CC(=O)N2C[C@H](F)C[C@H]2C(=O)NCc2cccc(Cl)c2F)c2ccc(C#Cc3ncccn3)cc12` [Compound 9, (2S,4R)-1-(2-(3-acetyl-5-(pyrimidin-2-ylethynyl)-1H-indol-1-yl)acetyl)-N-(3-chloro-2-fluorobenzyl)-4-fluoropyrrolidine-2-carboxamide] displayed an IC50 of under 1000 nM.
`NC(=O)c1nn(CC(=O)N2[C@@H]3C[C@@H]3C[C@H]2C(=O)Nc2cccc(F)n2)c2ccc(C#Cc3ncccn3)cc12` [Compound 62, 1-(2-((1R,3S,5R)-3-(6-fluoropyridin-2-ylcarbamoyl)-2-azabicyclo[3.1.0]hexan-2-yl)-2-oxoethyl)-5-(pyrimidin-2-ylethynyl)-1H-indazole-3-carboxamide] showed an IC50 of under 1000 nM.
The compound `CCS(=O)(=O)NC(=O)C#Cc1ccc2c(c1)c(C(C)=O)cn2CC(=O)N1C[C@H](F)C[C@H]1C(=O)NCc1cccc(Cl)c1F` [Compound 8, (2S,4R)-1-(2-(3-acetyl-5-(3-(ethylsulfonamido)-3-oxoprop-1-ynyl)-1H-indol-1-yl)acetyl)-N-(3-chloro-2-fluorobenzyl)-4-fluoropyrrolidine-2-carboxamide] registered an IC50 of under 1000 nM.
`CC(=O)c1cn(CC(=O)N2C[C@H](F)C[C@H]2C(=O)NCc2cccc(Cl)c2F)c2ccc(C#Cc3cncnc3)cc12` [Compound 16, (2S,4R)-1-(2-(3-acetyl-5-(pyrimidin-5-ylethynyl)-1H-indol-1-yl)acetyl)-N-(3-chloro-2-fluorobenzyl)-4-fluoropyrrolidine-2-carboxamide] registered an IC50 of under 1000 nM.
The result for `NC(=O)c1nn(CC(=O)N2C[C@H](F)C[C@H]2C(=O)Nc2cccc(Cl)n2)c2ccc(C#Cc3cnccn3)cc12` [Compound 82, 1-(2-((2S,4R)-2-(6-chloropyridin-2-ylcarbamoyl)-4-fluoropyrrolidin-1-yl)-2-oxoethyl)-5-(pyrazin-2-ylethynyl)-1H-indazole-3-carboxamide] reads under 1000 nM; that for `CC(=O)c1cn(CC(=O)N2C[C@H](F)C[C@H]2C(=O)NCc2cccc(Cl)c2F)c2ccc(C#Cc3ccncc3)cc12` [Compound 17, (2S,4R)-1-(2-(3-acetyl-5-(pyridin-4-ylethynyl)-1H-indol-1-yl)acetyl)-N-(3-chloro-2-fluorobenzyl)-4-fluoropyrrolidine-2-carboxamide], under 1000 nM; that for `CCS(=O)(=O)NC(=O)C#Cc1ccc2c(C(C)=O)cn(CC(=O)N3C[C@H](F)C[C@H]3C(=O)NCc3cccc(Cl)c3F)c2c1` [Compound 10, (2S,4R)-1-(2-(3-acetyl-6-(3-(ethylsulfonamido)-3-oxoprop-1-ynyl)-1H-indol-1-yl)acetyl)-N-(3-chloro-2-fluorobenzyl)-4-fluoropyrrolidine-2-carboxamide], under 1000 nM.
`CC(=O)c1cn(CC(=O)N2C[C@H](F)C[C@H]2C(=O)Nc2cccc(Br)n2)c2ccc(C#Cc3ncccn3)cc12` [Compound 42, (2S,4R)-1-(2-(3-acetyl-5-(pyrimidin-2-ylethynyl)-1H-indol-1-yl)acetyl)-N-(6-bromopyridin-2-yl)-4-fluoropyrrolidine-2-carboxamide]: the IC50 was under 1000 nM.
The result for `NC(=O)c1nn(CC(=O)N2CCS[C@H]2C(=O)Nc2cccc(-c3ccccc3Cl)c2F)c2ccc(C#Cc3ncccn3)cc12` [Compound 66, (S)-3-(2-(3-carbamoyl-5-(pyrimidin-2-ylethynyl)-1H-indazol-1-yl)acetyl)-N-(2′-chloro-2-fluorobiphenyl-3-yl)thiazolidine-2-carboxamide] reads under 1000 nM; that for `N#Cc1cccc(NC(=O)[C@@H]2C[C@H]3C[C@H]3N2C(=O)Cn2nc(C(N)=O)c3cc(C#Cc4ncccn4)ccc32)n1` [Compound 57, 1-(2-((1R,3S,5R)-3-(6-cyanopyridin-2-ylcarbamoyl)-2-azabicyclo[3.1.0]hexan-2-yl)-2-oxoethyl)-5-(pyrimidin-2-ylethynyl)-1H-indazole-3-carboxamide], under 1000 nM; that for `NC(=O)c1nn(CC(=O)N2C[C@H](F)C[C@H]2C(=O)Nc2cccc(Br)n2)c2ccc(C#Cc3ccccn3)cc12` [Compound 48, 1-(2-((2S,4R)-2-(6-bromopyridin-2-ylcarbamoyl)-4-fluoropyrrolidin-1-yl)-2-oxoethyl)-5-(pyridin-2-ylethynyl)-1H-indazole-3-carboxamide], under 1000 nM.
In turn, `NC(=O)c1nn(CC(=O)N2C[C@H](F)C[C@H]2C(=O)Nc2cccc(Cl)n2)c2ccc(C#Cc3cccnn3)cc12` [Compound 75, 1-(2-((2S,4R)-2-(6-chloropyridin-2-ylcarbamoyl)-4-fluoropyrrolidin-1-yl)-2-oxoethyl)-5-(pyridazin-3-ylethynyl)-1H-indazole-3-carboxamide] gave a half-inhibitory concentration (IC50) of under 1000 nM.
Compound `NC(=O)c1nn(CC(=O)N2C[C@H](F)C[C@H]2C(=O)Nc2cccc(-c3ccc(F)cc3Cl)c2F)c2ccc(C#Cc3ncccn3)cc12` [Compound 49, 1-(2-((2S,4R)-2-(2′-chloro-2,4′-difluorobiphenyl-3-ylcarbamoyl)-4-fluoropyrrolidin-1-yl)-2-oxoethyl)-5-(pyrimidin-2-ylethynyl)-1H-indazole-3-carboxamide] showed an IC50 of under 1000 nM.
Turning to `NC(=O)c1nn(CC(=O)N2[C@@H]3C[C@@H]3C[C@H]2C(=O)Nc2cccc(Br)n2)c2ccc(C#Cc3cc(F)ccn3)cc12` [Compound 65, 1-(2-((1R,3S,5R)-3-(6-bromopyridin-2-ylcarbamoyl)-2-azabicyclo[3.1.0]hexan-2-yl)-2-oxoethyl)-5-((4-fluoropyridin-2-yl)ethynyl)-1H-indazole-3-carboxamide], the half-inhibitory concentration (IC50) was under 1000 nM.
The value for `NC(=O)c1nn(CC(=O)N2C[C@H](F)C[C@H]2C(=O)Nc2cccc(Cl)n2)c2ccc(C#Cc3ccnnc3)cc12` [Compound 80, 1-(2-((2S,4R)-2-(6-chloropyridin-2-ylcarbamoyl)-4-fluoropyrrolidin-1-yl)-2-oxoethyl)-5-(pyridazin-4-ylethynyl)-1H-indazole-3-carboxamide] was under 1000 nM; that for `CC(=O)c1cn(CC(=O)N2C[C@H](F)C[C@H]2C(=O)NCc2cccc(Cl)c2F)c2ccc(C#CC(=O)O)cc12` [Compound 6, 3-(3-acetyl-1-(2-((2S,4R)-2-(3-chloro-2-fluorobenzylcarbamoyl)-4-fluoropyrrolidin-1-yl)-2-oxoethyl)-1H-indol-5-yl)propiolic acid] was under 1000 nM; that for `NC(=O)c1nn(CC(=O)N2C[C@H](F)C[C@H]2C(=O)Nc2cncc(C(F)(F)F)n2)c2ccc(C#Cc3ncc(F)cn3)cc12` [Compound 70, 1-(2-((2S,4R)-4-fluoro-2-(6-(trifluoromethyl)pyrazin-2-ylcarbamoyl)pyrrolidin-1-yl)-2-oxoethyl)-5-((5-fluoropyrimidin-2-yl)ethynyl)-1H-indazole-3-carboxamide] was under 1000 nM.
The value for `CC(=O)c1cn(CC(=O)N2C[C@H](F)C[C@H]2C(=O)NCc2cccc(Cl)c2F)c2ccc(C#Cc3ccccn3)cc12` [Compound 19, (2S,4R)-1-(2-(3-acetyl-5-(pyridin-2-ylethynyl)-1H-indol-1-yl)acetyl)-N-(3-chloro-2-fluorobenzyl)-4-fluoropyrrolidine-2-carboxamide] was under 1000 nM; that for `N#Cc1ccc(C#Cc2ccc3c(c2)c(C(N)=O)nn3CC(=O)N2[C@@H]3C[C@@H]3C[C@H]2C(=O)Nc2cccc(Br)n2)nc1` [Compound 60, 1-(2-((1R,3S,5R)-3-(6-bromopyridin-2-ylcarbamoyl)-2-azabicyclo[3.1.0]hexan-2-yl)-2-oxoethyl)-5-((5-cyanopyridin-2-yl)ethynyl)-1H-indazole-3-carboxamide] was under 1000 nM.
As for `NC(=O)c1nn(CC(=O)N2C[C@H](F)C[C@H]2C(=O)Nc2cccc(-c3ccccc3Cl)c2F)c2ccc(C#Cc3ccnnc3)cc12` [Compound 79, 1-(2-((2S,4R)-2-(2′-chloro-2-fluorobiphenyl-3-ylcarbamoyl)-4-fluoropyrrolidin-1-yl)-2-oxoethyl)-5-(pyridazin-4-ylethynyl)-1H-indazole-3-carboxamide], the 50% inhibitory concentration (IC50) is under 1000 nM.
As to `NC(=O)c1nn(CC(=O)N2C[C@H](F)C[C@H]2C(=O)NCc2cccc(Cl)c2F)c2ccc(C#Cc3ncccn3)cc12` [Compound 20, 1-(2-((2S,4R)-2-(3-chloro-2-fluorobenzylcarbamoyl)-4-fluoropyrrolidin-1-yl)-2-oxoethyl)-5-(pyrimidin-2-ylethynyl)-1H-indazole-3-carboxamide], the IC50 was under 1000 nM.
The value for `NC(=O)c1nn(CC(=O)N2C[C@H](F)C[C@H]2C(=O)NCc2cccc(Cl)c2F)c2ccc(C#Cc3ccccn3)cc12` [Compound 23, 1-(2-((2S,4R)-2-(3-chloro-2-fluorobenzylcarbamoyl)-4-fluoropyrrolidin-1-yl)-2-oxoethyl)-5-(pyridin-2-ylethynyl)-1H-indazole-3-carboxamide] was under 1000 nM; that for `NC(=O)c1nn(CC(=O)N2C[C@H](F)C[C@H]2C(=O)Nc2cncc(Br)n2)c2ccc(C#Cc3cnccn3)cc12` [Compound 89, 1-(2-((2S,4R)-2-(6-bromopyrazin-2-ylcarbamoyl)-4-fluoropyrrolidin-1-yl)-2-oxoethyl)-5-(pyrazin-2-ylethynyl)-1H-indazole-3-carboxamide] was under 1000 nM.
`NC(=O)c1nn(CC(=O)N2C[C@H](F)C[C@H]2C(=O)NCc2cccc(Cl)c2F)c2ccc(C#Cc3cccc(N)n3)cc12` [Compound 36, 5-((6-aminopyridin-2-yl)ethynyl)-1-(2-((2S,4R)-2-(3-chloro-2-fluorobenzylcarbamoyl)-4-fluoropyrrolidin-1-yl)-2-oxoethyl)-1H-indazole-3-carboxamide] came in with an IC50 of under 1000 nM.

In general, IC50 refers to the concentration needed to halve the response being measured. Low values mean greater potency, high ones weaker potency.
